Here are results for 3 compounds from patent publication US20160374944A1, “COMPOSITIONS AND METHODS FOR TREATING AND PREVENTING CANCER BY TARGETING AND INHIBITING CANCER STEM CELLS” (priority 2011, published 2016).

The subject of assay [1] is Gli transcriptional activity in pancreatic CSCs. The experiment in a line: Gli-responsive GFP/firefly luciferase reporter. It counts as cell-based, human. As to the method:
(A) Pancreatic CSCs were treated with rottlerin (0-1 μM) for 24 h. The expression of Patched-1, Smo and Gli-2 was measured by qRT-PCR. […] (B) Pancreatic CSCs were transduced with Gli-responsive GFP/firefly luciferase viral particles (pGreen Fire1-Gli with EF1, System Biosciences). After transduction, culture medium was replaced and CSCs were treated with rottlerin (0-2 μM) for 24 h. Gli-responsive reporter activity was measured using a luciferase assay (Promega Corporation).
FIG. 40A and FIG. 40C are graphs and photographs showing the inhibition of components of sonic hedgehog pathway, Gli transcription and nuclear translocation by EGCG. (A) Inhibition of components of sonic hedgehog pathway and Gli transcription. Pancreatic CSCs were treated with EGCG (0-60 μM) for 36 h. The expression of Smothened (Smo), patched 1 (PTCH1), patched 2 (PTCH2), was measured by q-RT-PCR. […] (B) Inhibition of Gli1 and Gli2 expression and Gli transcription. Pancreatic CSCs were treated with EGCG (0-60 μM) for 36 h. The expression of Gli1 and Gli2 was measured by q-RT-PCR. Gli reporter activity. CSCs were transduced with Gli-responsive GFP/firefly luciferase viral particles (pGreen Fire1-Gli with EF1, System Biosciences). After transduction, culture medium was replaced and CSCs were treated with EGCG (0-60 μM) for 24 h. Gli-responsive reporter activity was measured by luciferase assay (Promega Corporation). […] Stained cells were mounted and visualized under a fluorescence microscope. Blue fluorescence of DAPI was changed to red color for a better contrast.
FIG. 42A and FIG. 42B show graphs showing quercetin synergizes with EGCG to inhibit self-renewal capacity, invasion, migration, and TCF/LEF and Gli transcriptional activities in pancreatic CSCs. […] Cell viability was measured by trypan blue assay. […] At the end of incubation period, colonies were counted. […] Cells invaded to the lower chambered were fixed with methanol, stained with crystal violet and counted. […] Cells migrated to the lower chambered were fixed with methanol, stained with crystal violet and counted. […] Apoptosis was measured by TUNEL assay. […]
For orientation: Reporter assays use an easily measured gene product as a stand-in for the process of interest.

Another assay has as its system Pancreatic CSCs. The experiment in a line: Transwell migration assay. Format: cell-based, human. The settings on record: for migration: EGCG 0-60 μM with or without quercetin 20 μM, 48 hrs. The method, then:
(A) Pancreatic CSCs were treated with EGCG (0-60 μM) for 48 h. At the end of incubation period, the expression of Snail, ZEB1 and Slug was measured by q-RT-PCR. […] (B) Transwell migration assay. Pancreatic CSCs were plated in the top chamber of the transwell and treated with EGCG (0-60 μM) for 24 h. Cells migrated to the lower chambered were fixed with methanol, stained with crystal violet and counted. […] (C) Matrigel invasion assay. CSCs were plated onto the Matrigel-coated membrane in the top chamber of the transwell and treated with EGCG (0-60 μM) for 48 h. Cells invaded to the lower chambered were fixed with methanol, stained with crystal violet and counted. […] (D) Effects of EGCG on TCF-1/LEF activity. Pancreatic CSCs were transduced with TCF/LEF responsive GFP/firefly luciferase viral particles (pGreen Fire1-Gli with EF1, System Biosciences). Transduced CSCs were treated with EGCG (0-60) for 48 h and the GFP fluorescence was measured. […] FIG. 42A and FIG. 42B show graphs showing quercetin synergizes with EGCG to inhibit self-renewal capacity, invasion, migration, and TCF/LEF and Gli transcriptional activities in pancreatic CSCs. (A) Effects of EGCG and quercetin on spheroid and colony formation. Upper Panel, uercetin synergizes with EGCG to inhibit spheroid's cell viability. CSCs were seeded in suspension and treated with EGCG (0-60 μM) with or without quercetin (20 μM) for 7 days. At the end of incubation period, all the spheroids were collected and resuspended. Cell viability was measured by trypan blue assay. […] Lower panel, uercetin synergizes with EGCG to inhibit colony formation. […] At the end of incubation period, colonies were counted. […] Cells invaded to the lower chambered were fixed with methanol, stained with crystal violet and counted. […] Cells migrated to the lower chambered were fixed with methanol, stained with crystal violet and counted. […] Apoptosis was measured by TUNEL assay. […] Transduced CSCs were treated with EGCG (40 μM) with or without quercetin (20 μM) for 48 hrs and the luciferase activity was measured.

For the compound `O=C(O[C@@H]1Cc2c(O)cc(O)cc2O[C@@H]1c1cc(O)c(O)c(O)c1)c1cc(O)c(O)c(O)c1` [EGCG, epigallocatechin gallate], the Gli transcriptional activity result in assay [1] (EGCG 0-60 μM, 24 h, luciferase assay) is given as “inhibited Gli transcriptional activity in a dose-dependent manner”; in assay [1] (EGCG 40 μM with or without quercetin 20 μM, 48 hrs, luciferase), “inhibited”. Besides, the migration entry in the assay with Pancreatic CSCs was “inhibited cell viability in spheroids, colony formation, migration and invasion by CSCs in a dose-dependent manner”. Moreover, the cell migration result in the assay with Pancreatic CSCs (EGCG 0-60 μM, 24 h) is given as “inhibited”.

On to `O=c1c(O)c(-c2ccc(O)c(O)c2)oc2cc(O)cc(O)c12` [quercetin], for which the migration entry in the assay on Pancreatic CSCs was “effective alone”.

Take `CC(=O)c1c(O)c(C)c(O)c(Cc2c(O)c3c(c(C(=O)/C=C/c4ccccc4)c2O)OC(C)(C)C=C3)c1O` [rottlerin]: the Gli transcriptional activity entry in assay [1] (rottlerin 0-2 μM, 24 h, luciferase assay) was “inhibited Gli transcriptional activity in a dose-dependent manner”.
